Test results from US11000033B2, “Ketone or oxime compound, and herbicide” (NISSAN CHEMICAL CORPORATION, priority 2014, dated 2021).

Columns and labels:
Assay type in all cases: in vivo
Leptochloa chinensis = assay: Test Example 3: herbicidal effect by foliage application, Wagner pot (symbol D); details: application herbicide amount 320 g/ha
Procedure, shortened: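 Herbicidal activity was rated three weeks after a foliar spray of diluted emulsion concentrate, applied at a predetermined dose to plants grown for 14 days from seed in waterlogged alluvial soil within a 25–30 °C greenhouse.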

Chenopodium album = assay: Test Example 4: herbicidal effect by soil treatment (symbol O); details: application herbicide amount 320 g/ha
Procedure, shortened: (§1)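 Seeds were sown in sterilized diluvial soil, covered with about 1.5 cm of soil, and the soil surface was sprayed with a water-diluted emulsion of the compound at a predetermined rate. Plants grew in a greenhouse at 25° C. to 30° C.; effects were scored visually 3 weeks after application.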

Digitaria ciliaris = assay: Test Example 5: herbicidal effect by foliage application, plastic box (symbol F); details: 320 g/ha, 3 weeks after application
Procedure, shortened: (§2)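 Sowing in sterilized diluvial soil, 14 days' greenhouse growth at 25° C. to 30° C., then uniform small-sprayer foliar application of aqueous emulsion dilution; plants scored three weeks afterwards.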

Alopecurus myosuroides = assay: Test Example 4: herbicidal effect by soil treatment (symbol J); details: application herbicide amount 320 g/ha
Procedure, shortened: as §1

Avena fatua = assay: Test Example 4: herbicidal effect by soil treatment (symbol I); details: application herbicide amount 320 g/ha
Procedure, shortened: as §1

beet = assay: Test Example 5: effect on crop by foliage application, plastic box (symbol f); details: 320 g/ha, 3 weeks after application
Procedure, shortened: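 Soil: sterilized diluvial. Container: plastic box, 21 × 13 cm, 7 cm deep. Sowing: spot-like, ~1.5 cm cover. Growth: greenhouse, 25° C. to 30° C.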

Monochoria vaginalis = assay: Test Example 2: herbicidal activity, application during weed generation in submerged conditions (symbol C); details: Table 23; application herbicide amount 320 g/ha; grade 0-5 by criteria of Test Example 1
Procedure, shortened: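 Visual herbicidal ratings, taken three weeks after dosing, reflect post-emergence water-surface application to seedlings at one to two leaves. Conditions: co-sown weeds in alluvial soil flooded to 4 cm, greenhouse held at 25° C. to 30° C.; compound given as water-diluted emulsion at a fixed herbicide amount.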

Galium spurium = assay: Test Example 4: herbicidal effect by soil treatment (symbol Q); details: application herbicide amount 320 g/ha
Procedure, shortened: as §1

transplanted rice plant = assay: Test Example 1: effect on crop, application before weed generation in submerged conditions (symbol a); details: application herbicide amount 320 g/ha
Procedure, shortened: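 Alluvial soil pots flooded to 4 cm water, sown with Echinochloa oryzacola, Scirpus juncoides and Monochoria vaginalis, then transplanted with 2.5 leaf stage rice seedlings; pre-emergence application. Greenhouse 25° C. to 30° C.; scored 0–5 by herbicidal ratio 3 weeks after application.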

rice = assay: Test Example 4: effect on crop by soil treatment (symbol b); details: application herbicide amount 320 g/ha
Procedure, shortened: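 Greenhouse culture at 25° C. to 30° C. followed sowing of seed in spots on sterilized diluvial soil with a soil cover close to 1.5 cm thick.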

Setaria viridis = assay: Test Example 5: herbicidal effect by foliage application, plastic box (symbol G); details: 320 g/ha, 3 weeks after application
Procedure, shortened: as §2

SMILES	herbicidal effect on D (Leptochloa chinensis), grade 0-5 (Leptochloa chinensis)	O: Chenopodium album, herbicidal effect grade (Chenopodium album)	F: Digitaria ciliaris, herbicidal effect grade (Digitaria ciliaris)	J: Alopecurus myosuroides, herbicidal effect grade (Alopecurus myosuroides)	I: Avena fatua, herbicidal effect grade (Avena fatua)	f: beet, effect on crop grade (beet)	Herbicidal effect grade, C: Monochoria vaginalis (Monochoria vaginalis)	Q: Galium spurium, herbicidal effect grade (Galium spurium)	Effect grade on crop, a: transplanted rice plant (transplanted rice plant)	b: directly sowed rice plant, effect on crop grade (rice)	G: Setaria viridis, herbicidal effect grade (Setaria viridis)
CON=CC1CC(O)=C(c2c(C)cc(C)cc2C)C1=O (mixture of isomers) [3-001]	2 (Herbicidal ratio of 20% or higher and lower than 40%)	0 (Herbicidal ratio of 5% or lower (almost no effect))	4 (Herbicidal ratio of 70% or higher and lower than 90%)	1 (Herbicidal ratio of 5% or higher and lower than 20%)	0 (Herbicidal ratio of 5% or lower (almost no effect))	0 (Herbicidal ratio of 5% or lower (almost no effect))	0 (Herbicidal ratio of 5% or lower (almost no effect))	0 (Herbicidal ratio of 5% or lower (almost no effect))	0 (Herbicidal ratio of 5% or lower (almost no effect))	2 (Herbicidal ratio of 20% or higher and lower than 40%)	3 (Herbicidal ratio of 40% or higher and lower than 70%)
CCc1cc(-n2cc(Cl)cn2)cc(C)c1C1=C(O)CC(CC(C)=NOC)C1=O (mixture of isomers) [6-005]	5 (Herbicidal ratio of 90% or more (almost completely withered))	0 (Herbicidal ratio of 5% or lower (almost no effect))	5 (Herbicidal ratio of 90% or more (almost completely withered))	5 (Herbicidal ratio of 90% or more (almost completely withered))	4 (Herbicidal ratio of 70% or higher and lower than 90%)	0 (Herbicidal ratio of 5% or lower (almost no effect))	3 (Herbicidal ratio of 40% or higher and lower than 70%)	0 (Herbicidal ratio of 5% or lower (almost no effect))	5 (Herbicidal ratio of 90% or more (almost completely withered))	5 (Herbicidal ratio of 90% or more (almost completely withered))	5 (Herbicidal ratio of 90% or more (almost completely withered))
CON=C(C)CC1CC(O)=C(c2c(C)cc(-c3ccc(C(F)(F)F)cc3)cc2C)C1=O (mixture of isomers) [6-016]	5 (Herbicidal ratio of 90% or more (almost completely withered))	0 (Herbicidal ratio of 5% or lower (almost no effect))	5 (Herbicidal ratio of 90% or more (almost completely withered))	0 (Herbicidal ratio of 5% or lower (almost no effect))	0 (Herbicidal ratio of 5% or lower (almost no effect))	0 (Herbicidal ratio of 5% or lower (almost no effect))	0 (Herbicidal ratio of 5% or lower (almost no effect))	0 (Herbicidal ratio of 5% or lower (almost no effect))	4 (Herbicidal ratio of 70% or higher and lower than 90%)	2 (Herbicidal ratio of 20% or higher and lower than 40%)	5 (Herbicidal ratio of 90% or more (almost completely withered))
CON=C(C)CC1CC(O)=C(c2c(C)cc(-c3ccc(OC)cc3)cc2C)C1=O (mixture of isomers) [6-017]	5 (Herbicidal ratio of 90% or more (almost completely withered))	0 (Herbicidal ratio of 5% or lower (almost no effect))	5 (Herbicidal ratio of 90% or more (almost completely withered))		0 (Herbicidal ratio of 5% or lower (almost no effect))	0 (Herbicidal ratio of 5% or lower (almost no effect))	0 (Herbicidal ratio of 5% or lower (almost no effect))	0 (Herbicidal ratio of 5% or lower (almost no effect))	5 (Herbicidal ratio of 90% or more (almost completely withered))	3 (Herbicidal ratio of 40% or higher and lower than 70%)	5 (Herbicidal ratio of 90% or more (almost completely withered))
CON=C(C)CC1CC(O)=C(c2c(C)cc(-c3ccc(C)cc3)cc2C)C1=O (mixture of isomers) [6-018]	5 (Herbicidal ratio of 90% or more (almost completely withered))	0 (Herbicidal ratio of 5% or lower (almost no effect))	5 (Herbicidal ratio of 90% or more (almost completely withered))	5 (Herbicidal ratio of 90% or more (almost completely withered))	0 (Herbicidal ratio of 5% or lower (almost no effect))	1 (Herbicidal ratio of 5% or higher and lower than 20%)	3 (Herbicidal ratio of 40% or higher and lower than 70%)	0 (Herbicidal ratio of 5% or lower (almost no effect))	5 (Herbicidal ratio of 90% or more (almost completely withered))	3 (Herbicidal ratio of 40% or higher and lower than 70%)	5 (Herbicidal ratio of 90% or more (almost completely withered))
CCC(=O)CC1CC(O)=C(c2c(C)cc(C)cc2C)C1=O (stereo not drawn) [2-006]		0 (Herbicidal ratio of 5% or lower (almost no effect))	3 (Herbicidal ratio of 40% or higher and lower than 70%)	5 (Herbicidal ratio of 90% or more (almost completely withered))	3 (Herbicidal ratio of 40% or higher and lower than 70%)	0 (Herbicidal ratio of 5% or lower (almost no effect))	2 (Herbicidal ratio of 20% or higher and lower than 40%)	0 (Herbicidal ratio of 5% or lower (almost no effect))	3 (Herbicidal ratio of 40% or higher and lower than 70%)	5 (Herbicidal ratio of 90% or more (almost completely withered))	3 (Herbicidal ratio of 40% or higher and lower than 70%)
CCOC(=O)C(C(=O)CC1CC1)C1CC(O)=C(c2c(C)cc(C)cc2C)C1=O (stereo not drawn) [2-025]	1 (Herbicidal ratio of 5% or higher and lower than 20%)	0 (Herbicidal ratio of 5% or lower (almost no effect))	4 (Herbicidal ratio of 70% or higher and lower than 90%)	0 (Herbicidal ratio of 5% or lower (almost no effect))	0 (Herbicidal ratio of 5% or lower (almost no effect))	0 (Herbicidal ratio of 5% or lower (almost no effect))		0 (Herbicidal ratio of 5% or lower (almost no effect))	2 (Herbicidal ratio of 20% or higher and lower than 40%)	5 (Herbicidal ratio of 90% or more (almost completely withered))	5 (Herbicidal ratio of 90% or more (almost completely withered))
CON=C(C)CC1CC(O)=C(c2c(C)cc(C(C)=O)cc2C)C1=O (stereo not drawn) [6-026]	5 (Herbicidal ratio of 90% or more (almost completely withered))	0 (Herbicidal ratio of 5% or lower (almost no effect))	5 (Herbicidal ratio of 90% or more (almost completely withered))	1 (Herbicidal ratio of 5% or higher and lower than 20%)	0 (Herbicidal ratio of 5% or lower (almost no effect))	0 (Herbicidal ratio of 5% or lower (almost no effect))		0 (Herbicidal ratio of 5% or lower (almost no effect))	3 (Herbicidal ratio of 40% or higher and lower than 70%)	5 (Herbicidal ratio of 90% or more (almost completely withered))	5 (Herbicidal ratio of 90% or more (almost completely withered))
